Literature values, collected in patent US20230019058A1, “METHOD FOR THE TREATMENT OF VIRAL INFECTIONS” (Softhale NV, priority 2020, published 2023).

How the values were obtained:
[1] = system: influenza virus; conditions: reported by S. Matsuyama et al.; cited from earlier work
[2] = system: respiratory syncytial virus; conditions: reported by S. Matsuyama et al.; cited from earlier work
[3] = system: human coronavirus; conditions: cultured cells; reported by S. Matsuyama et al.; cited from earlier work
[4] = system: SARS-CoV-2; conditions: reported by S. Matsuyama et al., read-out: effective concentration to block SARS-CoV-2 replication (EC90); cited from earlier work

In the case of `CC(C)C(=O)OCC(=O)[C@@]12O[C@H](C3CCCCC3)O[C@@H]1C[C@H]1[C@@H]3CCC4=CC(=O)C=C[C@]4(C)[C@H]3[C@@H](O)C[C@@]12C` [ciclesonide, (11β, 16α)-16, 17-[[(R)-cyclohexylmethylene]bis(oxy)]-11-hydroxy-21-(2-methyl-1-oxopropoxy)-pregna-1,4-diene-3,20-dione], the “suppression of replication of influenza virus” value [1] is listed as “did not suppress”, the “suppression of replication of respiratory syncytial virus” value [2] is listed as “did not suppress” and the “suppression of human coronavirus replication” value [3] is listed as “suppressed human coronavirus replication”. The EC90 [4] was 6.3 µM.
